Columns and labels:
Assay type in all cases: biochemical
[1] = biological target: EGFR (Homo sapiens, UniProt P00533); experiment: Inhibition of a panel of kinases, in vitro HotSpot kinase assay: EGFR; details: Table 15, C compounds; 1 μM ATP
Method: (§1) The degree of inhibition of a panel of kinases is determined using the in vitro HotSpot kinase assay (purified enzymes, ^33P-ATP, an appropriate substrate and 1 μM ATP).

[2] = biological target: T1, ITK (Homo sapiens, UniProt Q08881); experiment: Inhibition of a panel of kinases, in vitro HotSpot kinase assay: ITK; details: Table 15, C compounds; 1 μM ATP
T1 sequence (Q08881 1-620): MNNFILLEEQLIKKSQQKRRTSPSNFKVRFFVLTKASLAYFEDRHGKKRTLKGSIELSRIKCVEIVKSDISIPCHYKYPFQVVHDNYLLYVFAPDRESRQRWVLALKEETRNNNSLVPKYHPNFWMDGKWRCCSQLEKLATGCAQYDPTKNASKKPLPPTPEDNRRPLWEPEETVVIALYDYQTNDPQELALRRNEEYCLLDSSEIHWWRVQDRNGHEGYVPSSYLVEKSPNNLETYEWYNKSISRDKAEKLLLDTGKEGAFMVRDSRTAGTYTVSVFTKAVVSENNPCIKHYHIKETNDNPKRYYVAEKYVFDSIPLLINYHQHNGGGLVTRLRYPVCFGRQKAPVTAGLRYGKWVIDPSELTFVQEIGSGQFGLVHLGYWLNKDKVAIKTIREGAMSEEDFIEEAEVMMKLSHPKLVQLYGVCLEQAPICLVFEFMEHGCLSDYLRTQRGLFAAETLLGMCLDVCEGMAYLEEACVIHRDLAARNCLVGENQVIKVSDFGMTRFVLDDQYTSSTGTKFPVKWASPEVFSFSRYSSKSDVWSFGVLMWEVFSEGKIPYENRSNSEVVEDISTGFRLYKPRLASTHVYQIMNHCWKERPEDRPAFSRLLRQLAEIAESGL
Method: as §1

[3] = biological target: T2, BTK-WT (Homo sapiens, UniProt Q06187); experiment: Btk in vitro inhibitory activity (one of Method A TR-FRET, Method B electrophoretic mobility shift, Method C radiometric filter binding); details: Table 15, C compounds; read-out: IC50 BTK-WT
T2 construct: purified from insect cells as a full-length construct containing an N-terminal 6X-His tag; His6 (N); made in house; host or cells: insect cells (baculovirus Sf21 in Method B)

[4] = biological target: T3, TEC (Homo sapiens, UniProt P42680); experiment: Inhibition of a panel of kinases, in vitro HotSpot kinase assay: TEC; details: Table 15, C compounds; 1 μM ATP
T3 sequence (P42680 1-631): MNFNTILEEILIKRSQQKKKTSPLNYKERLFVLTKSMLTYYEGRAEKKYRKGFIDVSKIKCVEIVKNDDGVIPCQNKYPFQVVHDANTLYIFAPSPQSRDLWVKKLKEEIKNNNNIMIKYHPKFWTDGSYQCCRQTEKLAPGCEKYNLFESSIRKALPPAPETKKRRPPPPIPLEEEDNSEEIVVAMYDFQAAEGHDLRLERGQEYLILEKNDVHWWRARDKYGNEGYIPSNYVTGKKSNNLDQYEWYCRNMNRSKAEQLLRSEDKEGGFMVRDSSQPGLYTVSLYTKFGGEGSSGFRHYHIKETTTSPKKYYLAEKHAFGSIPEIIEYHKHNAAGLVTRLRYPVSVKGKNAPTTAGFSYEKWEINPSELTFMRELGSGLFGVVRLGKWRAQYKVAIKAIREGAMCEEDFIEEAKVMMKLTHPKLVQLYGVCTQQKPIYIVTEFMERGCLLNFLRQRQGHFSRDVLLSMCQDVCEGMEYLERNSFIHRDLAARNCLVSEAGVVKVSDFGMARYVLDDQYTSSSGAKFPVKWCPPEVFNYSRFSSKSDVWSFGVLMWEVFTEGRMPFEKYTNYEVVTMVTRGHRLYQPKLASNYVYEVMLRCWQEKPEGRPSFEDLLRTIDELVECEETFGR
Method: as §1

[5] = biological target: T4, TXK (Homo sapiens, UniProt P42681); experiment: Inhibition of a panel of kinases, in vitro HotSpot kinase assay: TXK; details: Table 15, C compounds; 1 μM ATP
T4 sequence (P42681 1-527): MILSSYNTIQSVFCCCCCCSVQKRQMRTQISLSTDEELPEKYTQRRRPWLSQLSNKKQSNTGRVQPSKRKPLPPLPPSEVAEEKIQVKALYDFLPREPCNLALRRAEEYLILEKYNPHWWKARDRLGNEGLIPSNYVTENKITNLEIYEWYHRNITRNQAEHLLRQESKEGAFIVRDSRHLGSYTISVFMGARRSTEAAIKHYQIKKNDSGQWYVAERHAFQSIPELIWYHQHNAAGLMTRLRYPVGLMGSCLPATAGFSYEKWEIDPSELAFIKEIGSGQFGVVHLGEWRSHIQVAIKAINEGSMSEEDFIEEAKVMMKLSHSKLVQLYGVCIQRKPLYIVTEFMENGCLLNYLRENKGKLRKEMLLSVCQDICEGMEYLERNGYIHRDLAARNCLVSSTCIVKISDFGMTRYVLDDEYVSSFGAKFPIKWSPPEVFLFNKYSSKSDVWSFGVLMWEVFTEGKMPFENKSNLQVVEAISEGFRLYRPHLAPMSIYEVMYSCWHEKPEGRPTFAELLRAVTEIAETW
Method: as §1

T2 sequence (Q06187 whole entry): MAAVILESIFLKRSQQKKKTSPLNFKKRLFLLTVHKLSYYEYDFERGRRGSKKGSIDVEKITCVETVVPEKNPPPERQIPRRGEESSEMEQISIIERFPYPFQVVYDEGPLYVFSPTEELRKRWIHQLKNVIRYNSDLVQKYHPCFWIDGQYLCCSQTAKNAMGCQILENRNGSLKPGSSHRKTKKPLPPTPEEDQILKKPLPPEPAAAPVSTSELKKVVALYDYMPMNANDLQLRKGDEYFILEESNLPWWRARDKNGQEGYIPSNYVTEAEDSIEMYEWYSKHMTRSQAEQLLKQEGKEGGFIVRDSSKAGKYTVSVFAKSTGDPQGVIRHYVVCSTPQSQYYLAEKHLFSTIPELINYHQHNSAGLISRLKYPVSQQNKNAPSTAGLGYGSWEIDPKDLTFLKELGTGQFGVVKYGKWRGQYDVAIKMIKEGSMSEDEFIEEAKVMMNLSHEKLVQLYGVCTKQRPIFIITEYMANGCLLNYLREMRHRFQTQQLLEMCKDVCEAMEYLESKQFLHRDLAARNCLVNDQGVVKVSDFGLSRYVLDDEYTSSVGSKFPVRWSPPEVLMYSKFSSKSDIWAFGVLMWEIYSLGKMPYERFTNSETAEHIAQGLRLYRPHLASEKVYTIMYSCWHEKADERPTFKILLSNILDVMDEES
EGFR, sequence (P00533 25-1210): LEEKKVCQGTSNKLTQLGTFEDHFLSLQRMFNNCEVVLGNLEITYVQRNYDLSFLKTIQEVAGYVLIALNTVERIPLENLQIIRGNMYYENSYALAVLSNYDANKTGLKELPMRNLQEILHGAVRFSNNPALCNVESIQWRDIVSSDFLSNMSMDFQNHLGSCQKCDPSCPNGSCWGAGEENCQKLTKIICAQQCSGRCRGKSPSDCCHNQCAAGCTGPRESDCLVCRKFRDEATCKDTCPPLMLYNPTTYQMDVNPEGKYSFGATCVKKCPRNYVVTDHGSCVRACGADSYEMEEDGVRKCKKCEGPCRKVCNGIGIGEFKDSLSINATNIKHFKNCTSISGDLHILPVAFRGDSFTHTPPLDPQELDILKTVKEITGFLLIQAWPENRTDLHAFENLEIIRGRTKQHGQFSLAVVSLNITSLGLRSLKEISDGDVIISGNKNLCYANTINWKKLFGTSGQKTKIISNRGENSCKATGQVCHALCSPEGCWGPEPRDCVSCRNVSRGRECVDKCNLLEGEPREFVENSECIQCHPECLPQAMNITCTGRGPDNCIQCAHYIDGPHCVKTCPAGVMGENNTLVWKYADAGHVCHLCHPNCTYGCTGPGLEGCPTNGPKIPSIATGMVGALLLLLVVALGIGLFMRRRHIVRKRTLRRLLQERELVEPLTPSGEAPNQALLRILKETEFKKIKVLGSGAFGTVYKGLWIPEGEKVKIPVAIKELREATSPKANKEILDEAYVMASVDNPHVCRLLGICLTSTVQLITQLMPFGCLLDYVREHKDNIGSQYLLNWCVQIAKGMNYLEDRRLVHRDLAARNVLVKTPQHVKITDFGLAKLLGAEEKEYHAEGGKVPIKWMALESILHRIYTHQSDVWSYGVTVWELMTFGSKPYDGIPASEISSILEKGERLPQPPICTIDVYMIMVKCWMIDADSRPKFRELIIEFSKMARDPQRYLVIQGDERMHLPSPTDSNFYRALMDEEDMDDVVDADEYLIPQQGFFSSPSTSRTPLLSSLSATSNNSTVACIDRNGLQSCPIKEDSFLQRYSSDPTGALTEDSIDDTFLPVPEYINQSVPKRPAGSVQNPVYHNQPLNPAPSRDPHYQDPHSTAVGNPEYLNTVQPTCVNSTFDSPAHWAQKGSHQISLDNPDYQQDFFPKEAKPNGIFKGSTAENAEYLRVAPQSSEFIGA

Row | SMILES | IC50 [1] | IC50 [2] | IC50 [3] | IC50 [4] | IC50 [5]
1 | C=CC(=O)N1CCC[C@@H](Nc2nnc(C(N)=O)c(Nc3cccc(-c4ncccn4)c3)n2)C1 [Example C-71, (R)-3-(1-acryloylpiperidin-3-ylamino)-5-(3-(pyrimidin-2-yl)phenylamino)-1,2,4-triazine-6-carboxamide] | 0.01 to 0.1 µM | 0.01 to 0.1 µM | ≤ 0.01 µM | ≤ 0.01 µM | ≤ 0.01 µM
2 | C=CC(=O)N1CCC[C@@H](Nc2nnc(C(N)=O)c(Nc3cccc(-n4nccn4)c3)n2)C1 [Example C-75, (R)-5-(3-(2H-1,2,3-triazol-2-yl)phenylamino)-3-(1-acryloylpiperidin-3-ylamino)-1,2,4-triazine-6-carboxamide] | 0.01 to 0.1 µM | 0.01 to 0.1 µM | ≤ 0.01 µM | ≤ 0.01 µM | ≤ 0.01 µM
3 | C=CC(=O)N1CCC[C@@H](Nc2nnc(C(N)=O)c(Nc3ccc(N4CCOCC4=O)cc3)n2)C1 [Example C-76, (R)-3-(1-acryloylpiperidin-3-ylamino)-5-(4-(3-oxomorpholino)phenyl-amino)-1,2,4-triazine-6-carboxamide] | 0.01 to 0.1 µM | ≤ 0.01 µM | ≤ 0.01 µM | ≤ 0.01 µM | ≤ 0.01 µM
4 | C=CC(=O)N1CCC[C@@H](Nc2nnc(C(N)=O)c(Nc3ccc(-c4nn[nH]n4)cc3)n2)C1 [Example C-78, (R)-5-(4-(2H-tetrazol-5-yl)phenylamino)-3-(1-acryloylpiperidin-3-ylamino)-1,2,4-triazine-6-carboxamide] | ≤ 0.01 µM | 0.01 to 0.1 µM | ≤ 0.01 µM | ≤ 0.01 µM | ≤ 0.01 µM

Next, values leading:

Row | IC50 [1] | IC50 [2] | IC50 [3] | IC50 [4] | IC50 [5] | SMILES
5 | ≤ 0.01 µM | 0.01 to 0.1 µM | ≤ 0.01 µM | ≤ 0.01 µM | ≤ 0.01 µM | C=CC(=O)N1CCC[C@@H](Nc2nnc(C(N)=O)c(Nc3ccc(-c4ncco4)cc3)n2)C1 [Example C-51, (R)-3-(1-acryloylpiperidin-3-ylamino)-5-(4-(oxazol-2-yl)phenylamino)-1,2,4-triazine-6-carboxamide]
6 | ≤ 0.01 µM | ≤ 0.01 µM | ≤ 0.01 µM | ≤ 0.01 µM | ≤ 0.01 µM | C=CC(=O)N1CCC[C@@H](Nc2nnc(C(N)=O)c(Nc3ccc(C4(C#N)CCCC4)cc3)n2)C1 [Example C-58, (R)-3-(1-acryloylpiperidin-3-ylamino)-5-(4-(1-cyanocyclopentyl)phenylamino)-1,2,4-triazine-6-carboxamide]
7 | ≤ 0.01 µM | ≤ 0.01 µM | ≤ 0.01 µM | ≤ 0.01 µM | ≤ 0.01 µM | C=CC(=O)N1CCC[C@@H](Nc2nnc(C(N)=O)c(Nc3ccc(S(C)(=O)=O)cc3)n2)C1 [Example C-59, (R)-3-(1-acryloylpiperidin-3-ylamino)-5-(4-(methylsulfonyl)phenyl-amino)-1,2,4-triazine-6-carboxamide]
8 | ≤ 0.01 µM | 0.01 to 0.1 µM | ≤ 0.01 µM | ≤ 0.01 µM | ≤ 0.01 µM | C=CC(=O)N1CCC[C@@H](Nc2nnc(C(N)=O)c(Nc3ccc(-c4nccs4)cc3)n2)C1 [Example C-77, (R)-3-(1-acryloylpiperidin-3-ylamino)-5-(4-(thiazol-2-yl)phenylamino)-1,2,4-triazine-6-carboxamide]

Source: patent US20210070748A1, “INHIBITORS OF BRUTONS TYROSINE KINASE” (Pharmacyclics LLC, priority 2015, published 2021)
